For the assay, the system named is ovalbumin-induced eosinophil induction (eosinophils in BAL fluid). Put plainly: Rat Ovalbumin Model (ovalbumin-induced airway cell proliferation and inflammation). Format: in vivo, Brown Norway rats. The settings on record: ability to prevent ovalbumin-induced eosinophil induction (percentage of eosinophils in BAL fluid); test compounds dosed orally at 5 mg/kg twice daily, days 5-12; samples 24 hours after last OVA challenge. The protocol:
Complete protocol details can be found in Eynott et al. (2003. J. Pharmacol. Ther. 304:22-29). Briefly, Brown Norway rats are sensitized on days 1, 2, and 3 with intraperitoneal (i.p.) injections of lmg ovalbumin (OVA) and 100 mg Al(OH)3 in 1 mL 0.9% NaCl saline. They are then exposed to either 0.9% NaCl saline or 1% OVA aerosol every 3rd day (days 6, 9, & 12) for 30 minutes. 2 mg/kg dexamethasone is used as a positive control and is dosed i.p. once a day on days 4, 5, 6, 9, & 12. Vehicle (15% β-cyclodextrins in DMSO) and test compounds are dosed orally twice a day on days 5-12. On challenge days, all animals are treated 1 hour prior to OVA allergen exposure and, if required for twice a day treatment, ˜4-8 hours after allergen exposure. Samples are collected 24 hours after the last OVA challenge. For sample collection, rats are anaesthetized by administration of 10 mg/kg xylazine and 60 mg/kg ketamine intraperitoneally. Once the rats were fully anesthetized, blood is collected for serum via the retro-orbital route. The rats are subsequently perfused by injecting 30 mL PBS through the right ventricle of the heart after the abdominal aorta is severed. A tracheostomy is then performed and bronchoalveolar lavage fluid (BAL) is collected through five 5 mL rinses using Hank's Balanced Salt Solution, which was kept on ice. Airway inflammatory cell accumulation and proliferation of cells are measured through the BAL fluid collection and subsequent cell counts. Cytospin slides are prepared and eosinophil % are determined by counting ˜400 cells per slide. The test compounds are dosed at 5 mg/kg twice daily. Activity is scored based on the ability of the test compound to prevent ovalbumin-induced eosinophil induction (as determined by percentage of eosinophils in BAL fluid).

Take `Cc1cc2c(CC(=O)O)c(C)n(Cc3nc4ccccc4s3)c2cc1Cl` [[1-(1,3-benzothiazol-2-ylmethyl)-6-chloro-2,5-dimethyl-1H-indol-3-yl]acetic acid]: the “Activity (P < 0.05)” value is recorded as “no”.

Consider `Cc1c(CC(=O)O)c2cc(F)c(Cl)cc2n1Cc1nc2ccccc2s1` [[1-(1,3-benzothiazol-2-ylmethyl)-6-chloro-5-fluoro-2-methyl-1H-indol-3-yl]acetic acid], for which the “Activity (P < 0.05)” value is “no”.

For `COc1cc2c(CC(=O)O)c(C)n(Cc3nc4ccccc4s3)c2cc1Cl` [[1-(1,3-benzothiazol-2-ylmethyl)-6-chloro-5-methoxy-2-methyl-1H-indol-3-yl]acetic acid], the “Activity (P < 0.05)” value is “no”.

As to `COc1cc2c(CC(=O)O)c(C)n(Cc3cccc(Br)c3)c2cc1Cl` [[1-(3-bromobenzyl)-6-chloro-5-methoxy-2-methyl-1H-indol-3-yl]acetic acid], the “Activity (P < 0.05)” value is “no”.

For the compound `COc1cc2c(CC(=O)O)c(C)n(Cc3cc(Cl)cc(Cl)c3)c2cc1Cl` [[6-chloro-1-(3,5-dichlorobenzyl)-5-methoxy-2-methyl-1H-indol-3-yl]acetic acid], the “Activity (P < 0.05)” value is reported as “no”.

Regarding `COc1cc2c(CC(=O)O)c(C)n(Cc3cccc(Cl)c3)c2cc1Cl` [[6-chloro-1-(3-chlorobenzyl)-5-methoxy-2-methyl-1H-indol-3-yl]acetic acid], the “Activity (P < 0.05)” value is reported as “no”.

Turning to `Cc1c(CC(=O)O)c2c(Cl)cc(Cl)cc2n1Cc1cccc(OC(F)(F)F)c1` [{4,6-dichloro-2-methyl-1-[3-(trifluoromethoxy)benzyl]-1H-indol-3-yl}acetic acid], the “Activity (P < 0.05)” value is listed as “no”.

As to `Cc1c(CC(=O)O)c2cc(Cl)c(Cl)cc2n1Cc1cccc(OC(F)(F)F)c1` [{5,6-dichloro-2-methyl-1-[3-(trifluoromethoxy)benzyl]-1H-indol-3-yl}acetic acid], the “Activity (P < 0.05)” value is listed as “no”.

Turning to `Cc1cc2c(CC(=O)O)c(C)n(Cc3cccc(OC(F)(F)F)c3)c2cc1Cl` [{6-chloro-2,5-dimethyl-1-[3-(trifluoromethoxy)benzyl]-1H-indol-3-yl}acetic acid], the “Activity (P < 0.05)” value is “yes”.

Turning to `Cc1cc2c(CC(=O)O)c(C)n(Cc3cccc(C(F)(F)F)c3)c2cc1Cl` [{6-chloro-2,5-dimethyl-1-[3-(trifluoromethyl)benzyl]-1H-indol-3-yl}acetic acid], the “Activity (P < 0.05)” value is reported as “no”.

With `Cc1c(CC(=O)O)c2cc(F)c(Cl)cc2n1Cc1cccc(OC(F)(F)F)c1` [{6-chloro-5-fluoro-2-methyl-1-[3-(trifluoromethoxy)benzyl]-1H-indol-3-yl}acetic acid], the “Activity (P < 0.05)” value is “no”.

For the compound `COc1cc2c(CC(=O)O)c(C)n(Cc3cccc(OC(F)(F)F)c3)c2cc1Cl` [{6-chloro-5-methoxy-2-methyl-1-[3-(trifluoromethoxy)benzyl]-1H-indol-3-yl}acetic acid], the “Activity (P < 0.05)” value is “yes”.

`COc1cc2c(CC(=O)O)c(C)n(Cc3cccc(C(F)(F)F)c3)c2cc1Cl` [{6-chloro-5-methoxy-2-methyl-1-[3-(trifluoromethyl)benzyl]-1H-indol-3-yl}acetic acid]: the “Activity (P < 0.05)” value is listed as “no”.

The values above are taken from patent US20070203209A1, “Useful indole compounds” (priority 2005, published 2007).
